Columns and labels:
NCI-H69 cells = assay: Conjugate 1 potency in vitro with and without Vorinostat pre-treatment; format: cell-based
Description: In a further study, whether increased SSTR2 expression would result in better delivery of Conjugate 1 to small cell lung cancer cells (NCI-H69) was evaluated. Conjugate 1 potency with Vorinostat pre-treatment was compared with Conjugate 1 potency without Vorinostat pre-treatment. […].

[1] = Conjugate 1 tumor uptake with Vorinostat pre-treatment; format: in vivo, mice bearing NCI-H69 tumors; details: Vorinostat pre-treatment vs none; P=0.03
Description: In vivo, mice bearing NCI-H69 tumors were pre-treated with Vorinostat then administered Conjugate 1. Tumors were analyzed for Conjugate 1 concentrations.

[2] = tested on: NCI-H727 (lung carcinoid) xenograft; assay: Conjugate 1 and Vorinostat combination in NCI-H727 xenograft model; format: in vivo, mice; details: very low SSTR2 (IRS 1)
[3] = tested on: NCI-H69 tumors (small cell lung cancer); assay: Low doses of Conjugate 1 with Vorinostat, same-day start or pre-treatment, in NCI-H69 model; format: in vivo; details: mice
Description: In a further study with NCI-H69 model (small cell lung cancer), low doses of Conjugate 1 were given to tumor bearing mice and tumor regression was tracked. 1/3 MTD of Conjugate 1 is 0.7 mpk. 1/6 MTD of Conjugate 1 is 0.35 mpk.
Mice bearing NCI-H69 tumors were treated with a combination of Vorinostat and Conjugate 1 starting on the same day or pre-treated with Vorinostat for 4 days IP then administered low doses of Conjugate 1. In total, mice received 10 total doses of Vorinostat (q.d×5) and 2 doses of Conjugate 1 (q.w.×2).
. No significant body weight loss was observed during these studies. […]

[4] = tested on: xenograft models that over-express SSTR2; assay: Preclinical single agent studies in xenograft models that over-express SSTR2; format: in vivo; details: single agent Conjugate 1 treatment
Source text: The targeting peptide of Conjugate 1 selectively binds to SSTR2, triggers receptor internalization leading to the accumulation of the DM1 to provide antitumor activity by disrupting microtubule networks causing apoptosis and mitotic catastrophe.

SSTR2 = SSTR2 expression by IHC after Vorinostat treatment; format: in vivo, mice bearing NCI-H69 tumors
Description: Mice bearing NCI-H69 tumors (small cell lung cancer) were treated with Vorinostat for 10 days IP (q.d.×5). Tumors were collected and processed for SSTR2 expression by IHC.
On Day 6 the IRS score doubled from 6 in the vehicle to 12 in the treated group. The immunoreactive score (IRS) is determined by multiplying the staining intensity in four gradations with the percentage of positive cells in five gradations.

SMILES	Conjugate 1 potency (NCI-H69 cells; with Vorinostat pre-treatment vs without, NCI-H69 cells in vitro)	Conjugate 1 concentrations in tumors [1]	activity as a single agent [2]	1/3 MTD [3]	1/6 MTD [3]	tumor regression [4]	IRS score (SSTR2 expression in tumors) (SSTR2; NCI-H69 tumors, Day 6, Vorinostat IP q.d.x5, vehicle 6)	SSTR2 expression in normal spleen tissues (SSTR2; normal spleen after Vorinostat treatment)	NCI-H69 cell proliferation (NCI-H69 cells; Vorinostat alone)
COc1cc2cc(c1Cl)N(C)C(=O)C[C@H](OC(=O)[C@H](C)N(C)C(=O)CCSSC[C@H](NC(=O)[C@@H]1CSSC[C@H](NC(=O)[C@H](N)Cc3ccccc3)C(=O)N[C@@H](Cc3ccc(O)cc3)C(=O)N[C@H](Cc3c[nH]c4ccccc34)C(=O)N[C@@H](CCCCN)C(=O)N[C@@H]([C@@H](C)O)C(=O)N1)C(N)=O)C[C@]1(C)O[C@H]1[C@H](C)[C@@H]1C[C@@](O)(NC(=O)O1)[C@H](OC)C/C=C/C=C(\C)C2 [Conjugate 1]	an increase in Conjugate 1 potency was observed	statistically significant (P=0.03) increase	no activity	0.7 mpk	0.35 mpk	complete and sustained tumor regression	–	–	–
O=C(CCCCCCC(=O)Nc1ccccc1)NO [Vorinostat, vorinostat]	–	–	–	–	–	–	12	an increase in expression was not observed	no effect
